From patent US12291504B2 (University of Pittsburgh—Of the Commonwealth System of …, priority 2018, dated 2025)
pKi: −log10 of the molar value.

Key:
Assay type in all cases: biochemical
SULT1A3 F222A, H226A = biological target: T1, SULT1A3 F222A, H226A (Homo sapiens, UniProt P0DMM9, F222A/H226A); experiment: Binding-site mutation effect on Ki CMP8, F222A, H226A; conditions: H226A versus wild type
T1 construct: N-His/GST/MBP triple-tag (N, cleaved yes); made in house; host or cells: E. coli BL21(DE3)
Description: Initial-Rate Studies. Initial-rate parameters for the labeled or mutant SULT1A3 constructs were determined using a previously described 1-HP assay (25). Briefly, reactions were initiated by addition of PAPS (0.50 mM, 17×Km) to a solution containing enzyme (20 nM, active sites), 1-HP (2.0 μM, ˜24×Km), and KPO4 (50 mM), pH 7.5, 25±2° C. Reactions were monitored via fluorescence change associated with the conversion of 1-HP to 1-HP-S (λex=325 nm, λem=370 nm). Keq for the 1-HP sulfonation reaction is […]. Given the reaction conditions outlined above, ≥99% of 1-HP is converted to 1-HP-S, and ˜0.4% of PAPS is converted to PAP at equilibrium. […] Reaction progress curves were analyzed to obtain initial-rate parameters as described previously (26,27).
Inhibition studies. Inhibition parameters were determined under conditions identical to those described above (see, Initial-Rate Studies) except that [1-HP] was increased to 5.0 μM (˜61×Km) and inhibitor concentration was varied between 0.20-20×Ki. Ki was obtained using a least-squares fit to the following partial inhibition equation (25,28): v=kcat·(Ki+(1/kcat inh)·[I])/(Ki+[I]), where kcat inh is enzyme turnover at saturating substrates and allosteric inhibitor.
Confirming the Structure. The structure was validated by testing its ability to predict the consequences of mutations on the initial-rate parameters of the enzyme. […]

[1] = test system: other major SULT isoforms found in liver and brain; experiment: Inhibition of SULT isoforms by CMP8 (FIG. 1); conditions: at concentrations as high as 2 mM
Description: The initial rates of SULT catalyzed 1-HP sulfonation are plotted as a function of inhibitor concentration, and are normalized relative to [inhibitor]=0. Enzyme activity was monitored by the sulfonation dependent change in 1-HP fluorescence (λex=325 nm, λem=370 nm). Less than 5% of the concentration-limiting substrate converted at the reaction endpoint was consumed during initial-rate measurements. Each point is the average of three independent determinations. Conditions: SULT (20 nM, active sites), PAPS (0.50 mM, 17×Km), 1-HP (5.0 μM, 61×Km), KPO4 (50 mM), pH 7.5, 25±2° C.
Such inhibitors alleviate inhibition when used competitively against total inhibitors that bind at the same site. […] Given these favorable characteristics, it was reasoned that the CMP8-binding site offered a new target that could be used to control 1A3 activity. Consequently, the solution structure of the CMP8-binding site was determined using spin-label-triangulation NMR. As used herein, the “CMP8-binding site” refers to the SULT1A3 allosteric site defined herein, which is different from the catechin- and NSAID-binding sites.

SULT1E1 = biological target: T2, SULT1E1 (Homo sapiens, UniProt P49888); experiment: SULT1E1 inhibition test; conditions: at 50 uM
T2 sequence (P49888 1-294): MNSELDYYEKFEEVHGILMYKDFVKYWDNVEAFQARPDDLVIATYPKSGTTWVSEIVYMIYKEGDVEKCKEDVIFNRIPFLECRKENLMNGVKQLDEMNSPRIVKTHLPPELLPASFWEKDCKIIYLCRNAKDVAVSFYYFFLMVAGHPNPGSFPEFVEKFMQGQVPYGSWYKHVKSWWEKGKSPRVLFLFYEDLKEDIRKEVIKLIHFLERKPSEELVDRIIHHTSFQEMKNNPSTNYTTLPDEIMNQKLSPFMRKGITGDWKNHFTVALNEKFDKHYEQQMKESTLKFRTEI

SULT2A1 = biological target: T3, SULT2A1 (Homo sapiens, UniProt Q06520); experiment: SULT2A1 inhibition test; conditions: at 50 uM
T3 sequence (Q06520 1-285): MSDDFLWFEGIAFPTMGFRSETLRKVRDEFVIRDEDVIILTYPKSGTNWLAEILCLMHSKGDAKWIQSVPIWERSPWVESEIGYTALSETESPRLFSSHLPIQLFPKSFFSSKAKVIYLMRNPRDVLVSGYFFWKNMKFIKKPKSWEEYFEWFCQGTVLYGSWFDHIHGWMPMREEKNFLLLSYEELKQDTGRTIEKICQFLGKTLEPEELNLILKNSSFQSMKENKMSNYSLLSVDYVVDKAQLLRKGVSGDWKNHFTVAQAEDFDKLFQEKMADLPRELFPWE

Rhesus Macaque (1A3) = Rhesus Macaque (1A3) (Macaca mulatta, UniProt A0A5F7ZQH3); experiment: Inhibition of SULT1A3 homologues in different species: Rhesus Macaque
Description: Compounds 12, 23 and 25 were also tested for Inhibition of SULT1A3 in different species.
Inhibition of SULT1A3 Homologues in Different Species. SULT1A3 is only expressed in humans and higher primates. SULT1D1 is the isoform expressed in dogs and rodents that sulfonates neurotransmitters and is most similar to SULT1A3. Three synthesized allosteres (12, 23, and 25) were tested against both 1A3 and 1D1 from different species in order to explore testing in animal models. […] Mice have been engineered such that their SULT1A1/2 enzymes have been knocked out and replaced with the human versions of those isoforms.

Chain of Rhesus Macaque (1A3) (A0A5F7ZQH3 1-295): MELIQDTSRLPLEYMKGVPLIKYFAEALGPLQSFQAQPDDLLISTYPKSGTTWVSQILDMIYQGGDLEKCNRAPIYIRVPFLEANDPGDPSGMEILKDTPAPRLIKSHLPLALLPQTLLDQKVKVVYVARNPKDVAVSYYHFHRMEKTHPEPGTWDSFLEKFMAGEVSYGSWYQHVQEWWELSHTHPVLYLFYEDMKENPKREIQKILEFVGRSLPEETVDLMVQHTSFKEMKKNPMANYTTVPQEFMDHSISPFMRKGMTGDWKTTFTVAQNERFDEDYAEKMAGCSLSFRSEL
T1 sequence (P0DMM9 whole entry F222A/H226A): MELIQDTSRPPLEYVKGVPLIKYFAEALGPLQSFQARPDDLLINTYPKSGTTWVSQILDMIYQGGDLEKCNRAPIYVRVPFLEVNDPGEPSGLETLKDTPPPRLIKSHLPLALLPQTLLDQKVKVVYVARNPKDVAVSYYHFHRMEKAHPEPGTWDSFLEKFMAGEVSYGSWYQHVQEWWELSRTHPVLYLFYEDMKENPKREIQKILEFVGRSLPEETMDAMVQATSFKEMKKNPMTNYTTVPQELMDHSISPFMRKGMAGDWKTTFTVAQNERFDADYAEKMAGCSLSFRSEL

| increase in Ki CMP8 (SULT1A3 F222A, H226A) [fold] | inhibition of SULT1E1 (SULT1E1) | inhibition of SULT2A1 (SULT2A1) | Rhesus Macaque (1A3) % inh (Rhesus Macaque (1A3)) | pKi (Rhesus Macaque (1A3); parentheses one standard error) | SMILES | inhibition of other major SULT isoforms [1] |
| --- | --- | --- | --- | --- | --- | --- |
| 60 | – | – | – | – | CC(C)Cc1ccc2cc(CO)ccc2n1 [Compound 8, (2-Isobutylquinolin-6-yl)methanol] | does not detectably inhibit |
| – | no inhibition was detected | no inhibition was detected | 97 (2) % | 7.42 | CC(C)Cc1ccc2cc(CCC(N)=O)ccc2n1 [Compound 12] | – |
